Data taken from ChEMBL document CHEMBL3045546, “Synthesis and antimicrobial screening of 4-thiazolidinone and 2-azetidinone derivatives of piperazine” (2013).
Values after ≈ are worked out from the molar mass of the structure shown.

Columns and labels:
Assay type in all cases: functional
Bacillus cereus = assay: Antimicrobial activity against Bacillus cereus ATCC 11778 assessed as growth inhibition by broth dilution method
Bacillus pumilus = assay: Antimicrobial activity against Bacillus pumilus ATCC 14884 assessed as growth inhibition by broth dilution method
Staphylococcus hominis = assay: Antimicrobial activity against Staphylococcus hominis ATCC 27844 assessed as growth inhibition by broth dilution method
Staphylococcus aureus = assay: Antimicrobial activity against Staphylococcus aureus ATCC 25923 assessed as growth inhibition by broth dilution method
[1] = system: Staphylococcus epidermidis; assay: Antimicrobial activity against Staphylococcus epidermidis ATCC 12228 assessed as growth inhibition by broth dilution method
Micrococcus luteus = assay: Antimicrobial activity against Micrococcus luteus ATCC 4698 assessed as growth inhibition by broth dilution method
Bacillus subtilis = assay: Antimicrobial activity against Bacillus subtilis ATCC 6633 assessed as growth inhibition by broth dilution method
Aspergillus fumigatus = assay: Antimicrobial activity against Aspergillus fumigatus assessed as growth inhibition by broth dilution method
Aspergillus flavus = assay: Antimicrobial activity against Aspergillus flavus ATCC 15517 assessed as growth inhibition by broth dilution method
Trichoderma viride = assay: Antimicrobial activity against Hypocrea rufa ATCC 52440 assessed as growth inhibition by broth dilution method
Fusarium solani = assay: Antimicrobial activity against Fusarium solani ATCC 38136 assessed as growth inhibition by broth dilution method
Trichophyton longifusum = assay: Antimicrobial activity against Trichophyton longifusum ATCC 22397 assessed as growth inhibition by broth dilution method
Rhizoctonia solani = assay: Antimicrobial activity against Rhizoctonia solani ATCC 76131 assessed as growth inhibition by broth dilution method
Alternaria alternata = assay: Antimicrobial activity against Alternaria alternata ATCC 66868 assessed as growth inhibition by broth dilution method
Microsporum canis = assay: Antimicrobial activity against Arthroderma otae ATCC 11622 assessed as growth inhibition by broth dilution method
Candida albicans = assay: Antimicrobial activity against Candida albicans ATCC 10231 assessed as growth inhibition by broth dilution method
Aspergillus awamori = assay: Antimicrobial activity against Aspergillus awamori ATCC 22342 assessed as growth inhibition by broth dilution method
Aspergillus niger = assay: Antimicrobial activity against Aspergillus niger ATCC 9142 assessed as growth inhibition by broth dilution method
Pseudomonas aeruginosa = assay: Antimicrobial activity against Pseudomonas aeruginosa ATCC 10145 assessed as growth inhibition by broth dilution method
Escherichia coli = assay: Antimicrobial activity against Escherichia coli ATCC 25922 assessed as growth inhibition by broth dilution method
Salmonella typhi = assay: Antimicrobial activity against Salmonella enterica subsp. enterica serovar Typhi ATCC 19430 assessed as growth inhibition by broth dilution method
Klebsiella pneumoniae = assay: Antimicrobial activity against Klebsiella pneumoniae ATCC 13883 assessed as growth inhibition by broth dilution method
Proteus mirabilis = assay: Antimicrobial activity against Proteus mirabilis ATCC 49565 assessed as growth inhibition by broth dilution method
Proteus vulgaris = assay: Antimicrobial activity against Proteus vulgaris ATCC 13315 assessed as growth inhibition by broth dilution method

SMILES	MIC (Bacillus cereus) [µg/mL]	MIC (Bacillus pumilus) [µg/mL]	MIC (Staphylococcus hominis) [µg/mL]	MIC (Staphylococcus aureus) [µg/mL]	MIC [1] [µg/mL]	MIC (Micrococcus luteus) [µg/mL]	MIC (Bacillus subtilis) [µg/mL]	MIC (Aspergillus fumigatus) [µg/mL]	MIC (Aspergillus flavus) [µg/mL]	MIC (Trichoderma viride) [µg/mL]	MIC (Fusarium solani) [µg/mL]	MIC (Trichophyton longifusum) [µg/mL]	MIC (Rhizoctonia solani) [µg/mL]	MIC (Alternaria alternata) [µg/mL]	MIC (Microsporum canis) [µg/mL]	MIC (Candida albicans) [µg/mL]	MIC (Aspergillus awamori) [µg/mL]	MIC (Aspergillus niger) [µg/mL]	MIC (Pseudomonas aeruginosa) [µg/mL]	MIC (Escherichia coli) [µg/mL]	other results
COc1ccc(C2C(Cl)C(=O)N2CCN2CCN(C(=O)CCl)CC2)cc1 (centres undefined)	9.37 (≈ 23.4 µM)	9.37 (≈ 23.4 µM)	4.68 (≈ 11.7 µM)	9.37 (≈ 23.4 µM)	4.68 (≈ 11.7 µM)	9.37 (≈ 23.4 µM)	9.37 (≈ 23.4 µM)	9.37 (≈ 23.4 µM)	9.37 (≈ 23.4 µM)	18.8 (≈ 46.8 µM)	18.8 (≈ 46.8 µM)	9.37 (≈ 23.4 µM)	9.37 (≈ 23.4 µM)	9.37 (≈ 23.4 µM)	18.8 (≈ 46.8 µM)	18.8 (≈ 46.8 µM)	9.37 (≈ 23.4 µM)	18.8 (≈ 46.8 µM)	9.37 (≈ 23.4 µM)	4.68 (≈ 11.7 µM)	MIC (Salmonella typhi): 9.37 µg/mL (≈ 23.4 µM); MIC (Klebsiella pneumoniae): 9.37 µg/mL (≈ 23.4 µM); MIC (Proteus mirabilis): 9.37 µg/mL (≈ 23.4 µM); MIC (Proteus vulgaris): 9.37 µg/mL (≈ 23.4 µM)
O=C(CCl)N1CCN(CCN2C(=O)C(Cl)C2c2ccco2)CC1 (centres undefined)	75 (≈ 208 µM)	75 (≈ 208 µM)	75 (≈ 208 µM)	150 (≈ 416 µM)	75 (≈ 208 µM)	150 (≈ 416 µM)	150 (≈ 416 µM)	300 (≈ 833 µM)	300 (≈ 833 µM)	300 (≈ 833 µM)	150 (≈ 416 µM)	300 (≈ 833 µM)	300 (≈ 833 µM)	150 (≈ 416 µM)	150 (≈ 416 µM)	300 (≈ 833 µM)	150 (≈ 416 µM)	150 (≈ 416 µM)	150 (≈ 416 µM)	75 (≈ 208 µM)	MIC (Salmonella typhi): 150 µg/mL (≈ 416 µM); MIC (Klebsiella pneumoniae): 75 µg/mL (≈ 208 µM); MIC (Proteus mirabilis): 150 µg/mL (≈ 416 µM); MIC (Proteus vulgaris): 75 µg/mL (≈ 208 µM)
O=C1CSC(c2ccccc2)N1CCN1CCNCC1 (centres undefined)	37.5 (≈ 129 µM)	75 (≈ 257 µM)	37.5 (≈ 129 µM)	37.5 (≈ 129 µM)	75 (≈ 257 µM)	75 (≈ 257 µM)	37.5 (≈ 129 µM)	37.5 (≈ 129 µM)	75 (≈ 257 µM)	75 (≈ 257 µM)	37.5 (≈ 129 µM)	75 (≈ 257 µM)	37.5 (≈ 129 µM)	75 (≈ 257 µM)	37.5 (≈ 129 µM)	37.5 (≈ 129 µM)	75 (≈ 257 µM)	75 (≈ 257 µM)	37.5 (≈ 129 µM)	37.5 (≈ 129 µM)	MIC (Salmonella typhi): 18.8 µg/mL (≈ 64.3 µM); MIC (Klebsiella pneumoniae): 37.5 µg/mL (≈ 129 µM); MIC (Proteus mirabilis): 37.5 µg/mL (≈ 129 µM); MIC (Proteus vulgaris): 18.8 µg/mL (≈ 64.3 µM)
COc1cc(C2SCC(=O)N2CCN2CCNCC2)ccc1O (centres undefined)	9.37 (≈ 27.8 µM)	9.37 (≈ 27.8 µM)	9.37 (≈ 27.8 µM)	9.37 (≈ 27.8 µM)	9.37 (≈ 27.8 µM)	4.68 (≈ 13.9 µM)	9.37 (≈ 27.8 µM)	18.8 (≈ 55.6 µM)	18.8 (≈ 55.6 µM)	18.8 (≈ 55.6 µM)	9.73 (≈ 28.8 µM)	9.73 (≈ 28.8 µM)	18.8 (≈ 55.6 µM)	9.73 (≈ 28.8 µM)	18.8 (≈ 55.6 µM)	18.8 (≈ 55.6 µM)	9.73 (≈ 28.8 µM)	9.73 (≈ 28.8 µM)	9.37 (≈ 27.8 µM)	9.37 (≈ 27.8 µM)	MIC (Salmonella typhi): 9.37 µg/mL (≈ 27.8 µM); MIC (Klebsiella pneumoniae): 9.37 µg/mL (≈ 27.8 µM); MIC (Proteus mirabilis): 9.37 µg/mL (≈ 27.8 µM); MIC (Proteus vulgaris): 9.37 µg/mL (≈ 27.8 µM)
COc1ccc(C2SCC(=O)N2CCN2CCNCC2)cc1 (centres undefined)	4.68 (≈ 14.6 µM)	9.37 (≈ 29.1 µM)	4.68 (≈ 14.6 µM)	9.37 (≈ 29.1 µM)	9.37 (≈ 29.1 µM)	9.37 (≈ 29.1 µM)	9.37 (≈ 29.1 µM)	9.73 (≈ 30.3 µM)	18.8 (≈ 58.3 µM)	9.73 (≈ 30.3 µM)	18.8 (≈ 58.3 µM)	18.8 (≈ 58.3 µM)	9.73 (≈ 30.3 µM)	18.8 (≈ 58.3 µM)	18.8 (≈ 58.3 µM)	9.73 (≈ 30.3 µM)	9.73 (≈ 30.3 µM)	18.8 (≈ 58.3 µM)	9.37 (≈ 29.1 µM)	9.37 (≈ 29.1 µM)	MIC (Salmonella typhi): 4.68 µg/mL (≈ 14.6 µM); MIC (Klebsiella pneumoniae): 9.37 µg/mL (≈ 29.1 µM); MIC (Proteus mirabilis): 9.37 µg/mL (≈ 29.1 µM); MIC (Proteus vulgaris): 9.37 µg/mL (≈ 29.1 µM)
O=C(O)c1cn(C2CC2)c2cc(N3CCNCC3)c(F)cc2c1=O [CIPROFLOXACIN]	2.34 (≈ 7.06 µM)	2.34 (≈ 7.06 µM)	2.34 (≈ 7.06 µM)	2.34 (≈ 7.06 µM)	2.34 (≈ 7.06 µM)	2.34 (≈ 7.06 µM)	2.34 (≈ 7.06 µM)												2.34 (≈ 7.06 µM)	2.34 (≈ 7.06 µM)	MIC (Salmonella typhi): 2.34 µg/mL (≈ 7.06 µM); MIC (Klebsiella pneumoniae): 2.34 µg/mL (≈ 7.06 µM); MIC (Proteus mirabilis): 2.34 µg/mL (≈ 7.06 µM); MIC (Proteus vulgaris): 2.34 µg/mL (≈ 7.06 µM)
Clc1ccccc1C(c1ccccc1)(c1ccccc1)n1ccnc1 [CLOTRIMAZOLE]								4.68 (≈ 13.6 µM)	2.34 (≈ 6.79 µM)	2.34 (≈ 6.79 µM)	4.68 (≈ 13.6 µM)	4.68 (≈ 13.6 µM)	2.34 (≈ 6.79 µM)	1.17 (≈ 3.39 µM)	4.68 (≈ 13.6 µM)	2.34 (≈ 6.79 µM)	4.68 (≈ 13.6 µM)	2.34 (≈ 6.79 µM)			
